Laboratory results as given in patent US8691993B2, “Piperidinyl naphthylacetic acids” (Hoffman-La Roche Inc., priority 2011, dated 2014).

Tested on: Th2 cells
Assay: DK-PGD2-Induced IL-13 Production Assay in Th2 Cells
Assay type: cell-based
Conditions: inhibition of IL-13 production; human Th2 cells; 500 nM DK-PGD2; 4 hrs at 37° C.; ELISA
Experimental: DK-PGD2-Induced IL-13 Production Assay in Th2 Cells
Inhibition of 13,14-dihydro-15-keto Prostaglandin D2 (DK-PGD2)-induced IL-13 production in T helper type 2 (Th2) cells was applied to evaluate compound cellular potency.
Cultures of Th2 cells were established from blood of healthy human volunteers according to the following procedure. Peripheral blood mononuclear cells (PBMC) were first isolated from 50 mL of fresh blood by Ficoll-Hypaque density gradient centrifugation, followed by CD4^+ cell purification using a CD4^+ T Cell Isolation Kit II (from Miltenyi Biotec Inc.). The CD4^+ T cells were then differentiated to Th2 cells by culturing the cells in X-VIVO 15® medium (from Cambrex BioScience Walkersville Inc.) containing 10% human AB serum (serum of blood type AB from Invitrogen Corporation), 50 U/mL of recombinant human interleukin-2 (rhIL-2) (from PeproTech Inc.) and 100 ng/mL of recombinant human interleukin-4 (rhIL-4) (from PeproTech Inc.) for 7 days. The Th2 cells were isolated using a CD294 (CRTH2) MicroBead Kit (from Miltenyi Biotec Inc.) and amplified in X-VIVO 15® medium containing 10% human AB serum and 50 U/mL of rhIL-2 for 2 to 5 weeks. In general, 70% to 80% of the Th2 cells used in the assay are CRTH2-positive when analyzed by fluorescence-activated cell sorting using the BM16 antibody (as previously described) conjugated to Alexa Fluor 647.
The spontaneous production of IL-13 by Th2 cells was determined in the absence of DK-PGD2 stimulation and the value was subtracted from that in the presence of each compound for percent inhibition and IC50 calculations.
The percent inhibition of interleukin 13 (IL-13) production for a compound at various concentrations was calculated according to the following formula, [1-(IL-13 production in the presence of compound)/(IL-13 production in the presence of 0.15% DMSO)]×100. The IC50 value, defined as the concentration of a compound that is required for 50% inhibition of IL-13 production, was calculated by fitting the percent inhibition data for 7 concentrations to a sigmoidal dose-response (4 parameter logistic) model in the XLfit® software Excel add-in program [ID Business Solutions Ltd., model 205, where F(x)=(A+(B−A)/(1+((C/x)^D)))].

| IC50 [nM] | Compound |
| --- | --- |
| 20 | Cc1c(CC(=O)O)cc2ccc(F)cc2c1C1CCN(C(=O)c2c(Cl)cccc2Cl)CC1 [Example 29, {4-[1-(2,6-Dichloro-benzoyl)-piperidin-4-yl]-6-fluoro-3-methyl-naphthalen-2-yl}-acetic acid] |
| 83 | Cc1c(CC(=O)O)cc2ccc(F)cc2c1C1CCN(C(=O)c2cc(F)ccc2F)CC1 [Example 30, {4-[1-(2,5-Difluoro-benzoyl)-piperidin-4-yl]-6-fluoro-3-methyl-naphthalen-2-yl}-acetic acid] |
| 117 | Cc1c(CC(=O)O)cc2ccc(F)cc2c1C1CCN(C(=O)Cc2ccccc2)CC1 [Example 31, [6-Fluoro-3-methyl-4-(1-phenylacetyl-piperidin-4-yl)-naphthalen-2-yl]-acetic acid] |
| 371 | Cc1c(CC(=O)O)cc2ccc(F)cc2c1C1CCN(C(=O)Nc2c(F)cccc2F)CC1 [Example 32, {4-[1-(2,6-Difluoro-phenylcarbamoyl)-piperidin-4-yl]-6-fluoro-3-methyl-naphthalen-2-yl}-acetic acid] |
| 30 | Cc1c(CC(=O)O)cc2ccc(F)cc2c1C1CCN(C(=O)Nc2ccc(Cl)cc2Cl)CC1 [Example 33, {4-[1-(2,4-Dichloro-phenylcarbamoyl)-piperidin-4-yl]-6-fluoro-3-methyl-naphthalen-2-yl}-acetic acid] |
| 59 | Cc1c(CC(=O)O)cc2ccc(F)cc2c1C1CCN(C(=O)Nc2ccccc2Cl)CC1 [Example 34, {4-[1-(2-Chloro-phenylcarbamoyl)-piperidin-4-yl]-6-fluoro-3-methyl-naphthalen-2-yl}-acetic acid] |
| 241 | COc1ccccc1NC(=O)N1CCC(c2c(C)c(CC(=O)O)cc3ccc(F)cc23)CC1 [Example 35, {6-Fluoro-4-[1-(2-methoxy-phenylcarbamoyl)-piperidin-4-yl]-3-methyl-naphthalen-2-yl}-acetic acid] |
| 437 | Cc1c(CC(=O)O)cc2ccc(F)cc2c1C1CCN(C(=O)Nc2cccc(C(F)(F)F)c2)CC1 [Example 36] |

Second part, the compound before the results:

| Compound | IC50 [nM] |
| --- | --- |
| Cc1c(CC(=O)O)cc2ccc(F)cc2c1C1CCN(S(=O)(=O)c2ccccc2Cl)CC1 [Example 14, {4-[1-(2-Chloro-benzenesulfonyl)-piperidin-4-yl]-6-fluoro-3-methyl-naphthalen-2-yl}-acetic acid] | 33 |
| Cc1c(CC(=O)O)cc2ccc(F)cc2c1C1CCN(S(C)(=O)=O)CC1 [Example 15, [6-Fluoro-4-(1-methanesulfonyl-piperidin-4-yl)-3-methyl-naphthalen-2-yl]-acetic acid] | 142 |
| Cc1c(CC(=O)O)cc2ccc(F)cc2c1C1CCN(S(=O)(=O)c2ccc(Cl)cc2Cl)CC1 [Example 16, {4-[1-(2,4-Dichloro-benzenesulfonyl)-piperidin-4-yl]-6-fluoro-3-methyl-naphthalen-2-yl}-acetic acid] | 22 |
| Cc1c(CC(=O)O)cc2ccc(F)cc2c1C1CCN(S(=O)(=O)c2cc(Cl)ccc2Cl)CC1 [Example 17, {4-[1-(2,5-Dichloro-benzenesulfonyl)-piperidin-4-yl]-6-fluoro-3-methyl-naphthalen-2-yl}-acetic acid] | 120 |
| Cc1c(CC(=O)O)cc2ccc(F)cc2c1C1CCN(S(=O)(=O)c2c(Cl)cccc2Cl)CC1 [Example 18, {4-[1-(2,6-Dichloro-benzenesulfonyl)-piperidin-4-yl]-6-fluoro-3-methyl-naphthalen-2-yl}-acetic acid] | 58 |
| Cc1c(CC(=O)O)cc2ccc(F)cc2c1C1CCN(S(=O)(=O)Cc2ccccc2)CC1 [Example 19, [6-Fluoro-3-methyl-4-(1-phenylmethanesulfonyl-piperidin-4-yl)-naphthalen-2-yl]-acetic acid] | 8 |
| COc1ccccc1S(=O)(=O)N1CCC(c2c(C)c(CC(=O)O)cc3ccc(F)cc23)CC1 [Example 20, {6-Fluoro-4-[1-(2-methoxy-benzenesulfonyl)-piperidin-4-yl]-3-methyl-naphthalen-2-yl}-acetic acid] | 9 |
| Cc1c(CC(=O)O)cc2ccc(F)cc2c1C1CCN(S(=O)(=O)Cc2cccc(Cl)c2)CC1 [Example 21, {4-[1-(3-Chloro-phenylmethanesulfonyl)-piperidin-4-yl]-6-fluoro-3-methyl-naphthalen-2-yl}-acetic acid] | 45 |
| Cc1c(CC(=O)O)cc2ccc(F)cc2c1C1CCN(S(=O)(=O)Cc2ccc(Cl)cc2)CC1 [Example 22, {4-[1-(4-Chloro-phenylmethanesulfonyl)-piperidin-4-yl]-6-fluoro-3-methyl-naphthalen-2-yl}-acetic acid] | 23 |
| Cc1c(CC(=O)O)cc2ccc(F)cc2c1C1CCN(S(=O)(=O)c2cccc(C(F)(F)F)c2)CC1 [Example 23] | 266 |
| Cc1c(CC(=O)O)cc2ccc(F)cc2c1C1CCN(S(=O)(=O)C2CCCC2)CC1 [Example 24, [4-(1-Cyclopentanesulfonyl-piperidin-4-yl)-6-fluoro-3-methyl-naphthalen-2-yl]-acetic acid] | 23 |
| Cc1c(CC(=O)O)cc2ccc(F)cc2c1C1CCN(S(=O)(=O)N2CCCC2)CC1 [Example 25, {6-Fluoro-3-methyl-4-[1-(pyrrolidine-1-sulfonyl)-piperidin-4-yl]-naphthalen-2-yl}-acetic acid] | 14 |
| Cc1c(CC(=O)O)cc2ccc(F)cc2c1C1CCN(S(=O)(=O)Cc2ccccc2[N+](=O)[O-])CC1 [Example 26, {6-Fluoro-3-methyl-4-[1-(2-nitro-phenylmethanesulfonyl)-piperidin-4-yl]-naphthalen-2-yl}-acetic acid] | 32 |
| Cc1c(CC(=O)O)cc2ccc(F)cc2c1C1CCN(S(=O)(=O)Cc2ccccc2N)CC1 [Example 27, {4-[1-(2-Amino-phenylmethanesulfonyl)-piperidin-4-yl]-6-fluoro-3-methyl-naphthalen-2-yl}-acetic acid] | 27 |
| Cc1c(CC(=O)O)cc2ccc(F)cc2c1C1CCN(C(=O)c2ccc(Cl)cc2Cl)CC1 [Example 28, {4-[1-(2,4-Dichloro-benzoyl)-piperidin-4-yl]-6-fluoro-3-methyl-naphthalen-2-yl}-acetic acid] | 60 |
